Assay results reported in PubChem BioAssay AID328 (DTP/NCI, 2004).
Where “and” joins values, the source holds several entries; their conditions need not be identical. Identical values can stand only once. Inconclusive results and toxic doses are left out.

System: BDF1 mice, P388 leukemia ip, median survival T/C
Experiment: NCI In Vivo Anticancer Drug Screen. Data for tumor model P388 Leukemia (intraperitoneal) in B6D2F1 (BDF1) mice
Settings: endpoint: median survival time, higher = longer survival
Method in brief: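 In tumour-bearing mice, survival after compound treatment is set against the vehicle group and given as a quotient.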

[1] = dose: 100.0 mg/kg/injection, schedule: Q01DX009 (ip), vehicle: Klucel (hydroxypropylcellulose) (HPC)
[2] = dose: 100.0 mg/kg/injection, schedule: Q04DX003 (ip), vehicle: Klucel (hydroxypropylcellulose) (HPC)
[3] = dose: 200.0 mg/kg/injection, schedule: Q01DX009 (ip), vehicle: Klucel (hydroxypropylcellulose) (HPC)
[4] = dose: 200.0 mg/kg/injection, schedule: Q04DX003 (ip), vehicle: Klucel (hydroxypropylcellulose) (HPC)
[5] = dose: 400.0 mg/kg/injection, schedule: Q01DX009 (ip), vehicle: Klucel (hydroxypropylcellulose) (HPC)
[6] = dose: 400.0 mg/kg/injection, schedule: Q04DX003 (ip), vehicle: Klucel (hydroxypropylcellulose) (HPC)
[7] = dose: 25.0 mg/kg/injection, schedule: Q01DX009 (ip), vehicle: saline with Tween-80
[8] = dose: 50.0 mg/kg/injection, schedule: Q01DX009 (ip), vehicle: saline with Tween-80
[9] = dose: 50.0 mg/kg/injection, schedule: Q04DX003 (ip), vehicle: saline with Tween-80
[10] = dose: 100.0 mg/kg/injection, schedule: Q01DX009 (ip), vehicle: saline with Tween-80
[11] = dose: 100.0 mg/kg/injection, schedule: Q04DX003 (ip), vehicle: saline with Tween-80
[12] = dose: 200.0 mg/kg/injection, schedule: Q04DX003 (ip), vehicle: saline with Tween-80
[13] = dose: 400.0 mg/kg/injection, schedule: Q04DX003 (ip), vehicle: saline with Tween-80
[14] = dose: 200.0 mg/kg/injection, schedule: Q01DX009 (ip), vehicle: saline with Tween-80

`O=[N+]([O-])c1ccc(-[n+]2ccccc2)c([N+](=O)[O-])c1` was tested, and the T/C (dose: 37.5 mg/kg/injection, schedule: Q01DX009 (ip), vehicle: saline) was 118 % of control, the T/C (dose: 75.0 mg/kg/injection, schedule: Q01DX009 (ip), vehicle: saline) was 122 % of control and the T/C (dose: 150.0 mg/kg/injection, schedule: Q01DX009 (ip), vehicle: saline) was 104 % of control.

In the case of `Clc1ccccc1CSc1ncnc2nc[nH]c12`, the T/C [1] is reported as 90 % of control, the T/C [2] is reported as 95 % of control and the T/C [3] is reported as 90 % of control. For the same molecule, the T/C [4] was 100 % of control, the T/C [5] was 104 % of control and the T/C [6] was 100 % of control.

In the case of `CCNC(C)(C)C(O)c1ccc(Cl)s1` (centres undefined), the T/C [7] is reported as 105 % of control, the T/C (dose: 25.0 mg/kg/injection, schedule: Q04DX003 (ip), vehicle: saline with Tween-80) is reported as 102 % of control and the T/C [8] is reported as 88 % of control. The T/C [9] was 100 % of control, the T/C [10] was 88 % of control and the T/C [11] was 86 % of control and 101 % of control. The T/C [12] was 88 % of control and 104 % of control and the T/C [13] was 92 % of control.

For `O=P(Oc1ccc(OP(=O)(N2CC2)N2CC2)cc1)(N1CC1)N1CC1`, the T/C (dose: 50.0 mg/kg/injection, schedule: Q04DX003 (ip), vehicle: saline) was 168 % of control, the T/C (dose: 75.0 mg/kg/injection, schedule: Q04DX003 (ip), vehicle: saline) was 177 % of control and the T/C (dose: 115.0 mg/kg/injection, schedule: Q04DX003 (ip), vehicle: saline with Tween-80) was 190 % of control. The T/C (dose: 175.0 mg/kg/injection, schedule: Q04DX003 (ip), vehicle: saline with Tween-80) was 254 % of control, the T/C (dose: 264.0 mg/kg/injection, schedule: Q04DX003 (ip), vehicle: saline with Tween-80) was 150 % of control and the T/C [13] was 254 % of control.

In the case of `O=[N+]([O-])c1ccc(S(=O)(=O)c2ccc([N+](=O)[O-])cc2)cc1`, the T/C [9] is reported as 101 % of control, the T/C [12] is reported as 110 % of control and the T/C [13] is reported as 93 % of control.

In the case of `CNS(=O)(=O)c1ccc2c(c1)[nH]c(=S)n2C`, the T/C [11] is reported as 95 % of control, the T/C [12] is reported as 109 % of control and the T/C [13] is reported as 100 % of control.

With `S=P(N1CCCC1)(N1CC1)N1CC1` the T/C (dose: 5.0 mg/kg/injection, schedule: Q01DX009 (ip), vehicle: saline with Tween-80) was 158 % of control and the T/C (dose: 10.0 mg/kg/injection, schedule: Q01DX009 (ip), vehicle: saline with Tween-80) was 104 % of control.

With `Cc1c(N)nc(Br)c2ccccc12` the T/C (dose: 100.0 mg/kg/injection, schedule: Q04DX003 (ip), vehicle: saline sonified) was 91 % of control and the T/C (dose: 200.0 mg/kg/injection, schedule: Q04DX003 (ip), vehicle: saline sonified) was 116 % of control.

`OCCOc1cccc(OCCO)c1` was tested, and the T/C [11] was 100 % of control, the T/C [12] was 100 % of control and the T/C [13] was 104 % of control.

For `Clc1ccc2c(c1)Nc1cc(Cl)ccc1C=C2`, the T/C (dose: 75.0 mg/kg/injection, schedule: Q01DX001 (ip), vehicle: saline with Tween-80) was 91 % of control, the T/C (dose: 150.0 mg/kg/injection, schedule: Q01DX001 (ip), vehicle: saline with Tween-80) was 100 % of control and the T/C (dose: 300.0 mg/kg/injection, schedule: Q01DX001 (ip), vehicle: saline with Tween-80) was 100 % of control.

For `C[n+]1ccc(NC(=O)c2ccc(NC(=O)c3cccc(C(=O)Nc4ccc(C(=O)Nc5cc[n+](C)cc5)cc4)c3)cc2)cc1`, the T/C (dose: 66.0 mg/kg/injection, schedule: Q04DX003 (ip), vehicle: saline with Tween-80) was 160 % of control and the T/C [11] was 239 % of control.

With `CCOC(=O)CCC1(C(=O)OCC)Oc2ccc(Cl)cc2C1=O` (centres undefined) the T/C [8] was 106 % of control, the T/C [10] was 93 % of control and the T/C [14] was 108 % of control.

For `Cc1ccc(S(=O)(=O)N(C)c2ccc(C#N)c(Cl)c2Cl)cc1`, the T/C [11] was 90 % of control, the T/C [12] was 86 % of control and the T/C [13] was 90 % of control.

In the case of `CN(C)c1ccc(Cc2ccc(N(C)C)cc2[N+](=O)[O-])c([N+](=O)[O-])c1`, the T/C [2] is reported as 104 % of control, the T/C [4] is reported as 100 % of control and the T/C [6] is reported as 95 % of control.

`C[C@]12CC[C@@H]3c4ccc(O)cc4CC[C@H]3[C@@H]1CC[C@@H]2OC(=O)CCC1CCCC1` was tested, and the T/C [1] was 100 % of control, the T/C [2] was 104 % of control and the T/C [3] was 95 % of control. For the same molecule, the T/C [4] was 104 % of control, the T/C [5] was 104 % of control and the T/C [6] was 104 % of control.

`O=C1/C(=C/c2ccccc2)Cc2ccccc21` was tested, and the T/C [7] was 96 % of control, the T/C [8] was 96 % of control and the T/C [10] was 94 % of control. For the same molecule, the T/C [11] was 107 % of control, the T/C [14] was 96 % of control and the T/C [12] was 100 % of control. For the same molecule, the T/C [13] was 99 % of control.

In the case of `CC(=O)[C@H]1CC[C@H]2[C@@H]3CC[C@@H]4C[C@@H](O)CC[C@]4(C)[C@H]3CC[C@]12C`, the T/C (dose: 163.0 mg/kg/injection, schedule: Q01DX009 (ip), vehicle: saline with Tween-80) is reported as 109 % of control and the T/C (dose: 325.0 mg/kg/injection, schedule: Q01DX009 (ip), vehicle: saline with Tween-80) is reported as 100 % of control.

In the case of `CS(=O)(=O)N(CC(=O)O)Cc1ccc(Cl)c(Cl)c1`, the T/C (dose: 25.0 mg/kg/injection, schedule: Q04DX003 (ip), vehicle: other) is reported as 102 % of control, the T/C (dose: 50.0 mg/kg/injection, schedule: Q04DX003 (ip), vehicle: other) is reported as 102 % of control and the T/C (dose: 100.0 mg/kg/injection, schedule: Q04DX003 (ip), vehicle: other) is reported as 93 % of control. The T/C (dose: 200.0 mg/kg/injection, schedule: Q04DX003 (ip), vehicle: other) was 106 % of control and 107 % of control and the T/C (dose: 300.0 mg/kg/injection, schedule: Q04DX003 (ip), vehicle: other) was 95 % of control.

In the case of `CC1CCC(NC2=NCCO2)C1` (centres undefined), the T/C (dose: 100.0 mg/kg/injection, schedule: Q01DX001 (ip), vehicle: saline with Tween-80) is reported as 87 % of control, the T/C (dose: 200.0 mg/kg/injection, schedule: Q01DX001 (ip), vehicle: saline with Tween-80) is reported as 91 % of control and the T/C (dose: 400.0 mg/kg/injection, schedule: Q01DX001 (ip), vehicle: saline with Tween-80) is reported as 95 % of control.

In the case of `COc1cc(-c2ccc(Nc3ccccc3C(=O)O)c(OC)c2)ccc1Nc1ccccc1C(=O)O`, the T/C (dose: 50.0 mg/kg/injection, schedule: Q01DX010 (ip), vehicle: saline) is reported as 166 % of control and the T/C (dose: 100.0 mg/kg/injection, schedule: Q01DX010 (ip), vehicle: saline) is reported as 158 % of control.

`C=C(C)CSC(=S)NNc1ccccc1` was tested, and the T/C (dose: 37.5 mg/kg/injection, schedule: Q04DX003 (ip), vehicle: acetone) was 109 % of control, the T/C (dose: 56.25 mg/kg/injection, schedule: Q01DX009 (ip), vehicle: Klucel (hydroxypropylcellulose) (HPC)) was 115 % of control and the T/C (dose: 75.0 mg/kg/injection, schedule: Q04DX003 (ip), vehicle: acetone) was 100 % of control. The T/C (dose: 100.0 mg/kg/injection, schedule: Q01DX001 (ip), vehicle: alcohol) was 100 % of control, the T/C (dose: 112.5 mg/kg/injection, schedule: Q01DX009 (ip), vehicle: Klucel (hydroxypropylcellulose) (HPC)) was 110 % of control and the T/C (dose: 150.0 mg/kg/injection, schedule: Q01DX009 (ip), vehicle: Klucel (hydroxypropylcellulose) (HPC)) was 115 % of control. The T/C (dose: 150.0 mg/kg/injection, schedule: Q01DX009 (ip), vehicle: alcohol) was 109 % of control, the T/C (dose: 150.0 mg/kg/injection, schedule: Q04DX003 (ip), vehicle: acetone) was 104 % of control and the T/C (dose: 200.0 mg/kg/injection, schedule: Q01DX001 (ip), vehicle: alcohol) was 104 % of control. The T/C (dose: 225.0 mg/kg/injection, schedule: Q01DX009 (ip), vehicle: Klucel (hydroxypropylcellulose) (HPC)) was 115 % of control, the T/C (dose: 225.0 mg/kg/injection, schedule: Q04DX003 (ip), vehicle: alcohol) was 100 % of control and the T/C (dose: 335.0 mg/kg/injection, schedule: Q01DX009 (ip), vehicle: Klucel (hydroxypropylcellulose) (HPC)) was 115 % of control. For the same molecule, the T/C (dose: 340.0 mg/kg/injection, schedule: Q04DX003 (ip), vehicle: alcohol) was 95 % of control.

With `C#CC1(OCC(O)CCl)CCCCC1` (centres undefined) the T/C [10] was 116 % of control, the T/C (dose: 100.0 mg/kg/injection, schedule: Q04DX003 (ip), vehicle: saline) was 110 % of control and the T/C [14] was 104 % of control. For the same molecule, the T/C (dose: 200.0 mg/kg/injection, schedule: Q04DX003 (ip), vehicle: saline) was 120 % of control and the T/C (dose: 400.0 mg/kg/injection, schedule: Q04DX003 (ip), vehicle: saline) was 100 % of control.

With `C1=CC=CN(c2ccccc2)C=C1` the T/C (dose: 50.0 mg/kg/injection, schedule: Q01DX009 (ip), vehicle: Klucel (hydroxypropylcellulose) (HPC)) was 90 % of control, the T/C [1] was 105 % of control and the T/C [2] was 95 % of control. The T/C [3] was 105 % of control, the T/C [4] was 91 % of control and the T/C [6] was 100 % of control.
